Results as given in patent publication US9663448B2, “Tri-aryl compounds and compositions comprising the same” (BEN-GURION UNIVERSITY OF THE NEGEV RESEARCH AND DEVELOPMENT …, priority 2007, dated 2017).

Test: Solubility noted at work-up of the synthesis
Type: physicochemical
Details: qualitative remark
Experimental: 1,1,1-tris(4-hydroxyphenyl)ethane (1.53 gr, 5 mM), formaldehyde (1.35 gr, 45 mM) and 1-methyl piperazine (2.5 ml, 50 mM) in 20 ml water and 25 ml EtOH were refluxed for 3 hours. Evaporation provided a solid that by TLC and NMR contained 2 products, which was not the starting material. Formaldehyde (0.75 gr, 25 mM) and 1-methyl piperazine (1.5 ml, 30 mM) were added to 5 ml water and 10 ml EtOH and the reaction was refluxed for 4 hours. Evaporation and workup gave 3.3 gr light yellow-white solid, 67% yield, mp. […].

solubility in ethanol (solvent ethanol): Soluble
solubility in water (solvent water): very good solubility
Compound: CN1CCN(Cc2cc(C(C)(c3cc(CN4CCN(C)CC4)c(O)c(CN4CCN(C)CC4)c3)c3cc(CN4CCN(C)CC4)c(O)c(CN4CCN(C)CC4)c3)cc(CN3CCN(C)CC3)c2O)CC1 [VIII]
